Results reported in PubChem BioAssay AID2060908 (Molecular Pharmacology Branch, DTP, NCI, 2025).
Each block holds one compound with its values, some of them ahead of it.

System: 186277-243-T-J2-PDC complex spheroids, viability
Assay: Anticancer human tumor 186277-243-T-J2-PDC patient-derived colon adenocarcinoma cell line growth inhibition [RAS]
Settings: for viability, T/C: stronger effect = lower value
Method in brief: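 Multi-cell-type spheroids: tumor cells plus HUVEC endothelial cells and mesenchymal stem cells. RAS-pathway inhibitors were combined with targeted agents, each dosed in half-log steps down from clinical Cmax, or from 10 microM when Cmax was unknown.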

[1] = curve of first compound, second compound 0.0316 µM
[2] = curve of first compound, second compound 0.1 µM
[3] = curve of first compound, second compound 0.316 µM
[4] = curve of first compound, second compound 1 µM
[5] = second compound 0.0316 µM, first compound 0.0316 µM
[6] = second compound 0.0316 µM, first compound 0.1 µM
[7] = second compound 0.0316 µM, first compound 0.316 µM
[8] = second compound 0.0316 µM, first compound 1 µM
[9] = second compound 0.1 µM, first compound 0.0316 µM
[10] = second compound 0.1 µM, first compound 0.1 µM
[11] = second compound 0.1 µM, first compound 0.316 µM
[12] = second compound 0.1 µM, first compound 1 µM
[13] = second compound 0.316 µM, first compound 0.0316 µM
[14] = second compound 0.316 µM, first compound 0.1 µM
[15] = second compound 0.316 µM, first compound 0.316 µM
[16] = second compound 0.316 µM, first compound 1 µM
[17] = second compound 1 µM, first compound 0.0316 µM
[18] = second compound 1 µM, first compound 0.1 µM
[19] = second compound 1 µM, first compound 0.316 µM
[20] = second compound 1 µM, first compound 1 µM
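Note: spheroids exposed to compounds for 7 days before viability read.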

IC50 (curve of first compound, second compound 0.000949 µM): 0.347 µM | IC50 (curve of first compound, second compound 0.003 µM): 0.0885 µM | IC50 (curve of first compound, second compound 0.00949 µM): < 0.0316 µM | IC50 (curve of first compound, second compound 0.03 µM): < 0.0316 µM | IC50 (curve of first compound, second compound 0.0949 µM): < 0.0316 µM | IC50 (curve of first compound, second compound 0.3 µM): < 0.0316 µM
SMILES: CC(Nc1ccc2c(c1)OCCn1cc(N3C(=O)OCC3C(F)F)nc1-2)C(N)=O (stereo not drawn) + CCn1c(-c2cc(N3CCN(C)CC3)cnc2C(C)OC)c2c3cc(ccc31)-c1csc(n1)CC(NC(=O)C1CC1C)C(=O)N1CCCC(N1)C(=O)OCC(C)(C)C2
viability, T/C (second compound 0.000949 µM, first compound 0.0316 µM): 97.7% | viability, T/C (second compound 0.000949 µM, first compound 0.1 µM): 86.3% | viability, T/C (second compound 0.000949 µM, first compound 0.316 µM): 48.7% | viability, T/C (second compound 0.000949 µM, first compound 1 µM): 27.3% | viability, T/C (second compound 0.000949 µM, first compound 3.16 µM): 14.1% | viability, T/C (second compound 0.000949 µM, first compound 10 µM): 7.59% | viability, T/C (second compound 0.003 µM, first compound 0.0316 µM): 81.8% | viability, T/C (second compound 0.003 µM, first compound 0.1 µM): 46.6% | viability, T/C (second compound 0.003 µM, first compound 0.316 µM): 16.8% | viability, T/C (second compound 0.003 µM, first compound 1 µM): 8.63% | viability, T/C (second compound 0.003 µM, first compound 3.16 µM): 3.59% | viability, T/C (second compound 0.003 µM, first compound 10 µM): 2.34% | viability, T/C (second compound 0.00949 µM, first compound 0.0316 µM): 28% | viability, T/C (second compound 0.00949 µM, first compound 0.1 µM): 14.8% | viability, T/C (second compound 0.00949 µM, first compound 0.316 µM): 4.68% | viability, T/C (second compound 0.00949 µM, first compound 1 µM): 2.07% | viability, T/C (second compound 0.00949 µM, first compound 3.16 µM): 1.18% | viability, T/C (second compound 0.00949 µM, first compound 10 µM): 0.72% | viability, T/C (second compound 0.03 µM, first compound 0.0316 µM): 8.29% | viability, T/C (second compound 0.03 µM, first compound 0.1 µM): 4.59% | viability, T/C (second compound 0.03 µM, first compound 0.316 µM): 1.59% | viability, T/C (second compound 0.03 µM, first compound 1 µM): 0.91% | viability, T/C (second compound 0.03 µM, first compound 3.16 µM): 0.49% | viability, T/C (second compound 0.03 µM, first compound 10 µM): 0.23% | viability, T/C (second compound 0.0949 µM, first compound 0.0316 µM): 4.51% | viability, T/C (second compound 0.0949 µM, first compound 0.1 µM): 2.41% | viability, T/C (second compound 0.0949 µM, first compound 0.316 µM): 1.01% | viability, T/C (second compound 0.0949 µM, first compound 1 µM): 0.59% | viability, T/C (second compound 0.0949 µM, first compound 3.16 µM): 0.45% | viability, T/C (second compound 0.0949 µM, first compound 10 µM): 0.24% | viability, T/C (second compound 0.3 µM, first compound 0.0316 µM): 3.65% | viability, T/C (second compound 0.3 µM, first compound 0.1 µM): 2.08% | viability, T/C (second compound 0.3 µM, first compound 0.316 µM): 0.89% | viability, T/C (second compound 0.3 µM, first compound 1 µM): 0.55% | viability, T/C (second compound 0.3 µM, first compound 3.16 µM): 0.35% | viability, T/C (second compound 0.3 µM, first compound 10 µM): 0.29%

IC50 [1]: < 0.00316 µM | IC50 [2]: < 0.00316 µM | IC50 [3]: < 0.00316 µM | IC50 [4]: < 0.00316 µM | IC50 (curve of first compound, second compound 3.16 µM): < 0.00316 µM | IC50 (curve of first compound, second compound 10 µM): < 0.00316 µM
SMILES: Nc1ccn(C2OC(CO)C(O)C2(F)F)c(=O)n1 (stereo not drawn) + C#Cc1c(F)ccc2cc(O)cc(-c3ncc4c(N5CC6CCC(C5)N6)nc(OCC56CCCN5CC(F)C6)nc4c3F)c12
viability, T/C (second compound 0.0316 µM, first compound 0.00316 µM): 47% | viability, T/C (second compound 0.0316 µM, first compound 0.01 µM): 8.41% | viability, T/C [5]: 7.36% | viability, T/C [6]: 8.79% | viability, T/C [7]: 6.46% | viability, T/C [8]: 8.3% | viability, T/C (second compound 0.1 µM, first compound 0.00316 µM): 28.4% | viability, T/C (second compound 0.1 µM, first compound 0.01 µM): 8.66% | viability, T/C [9]: 8.73% | viability, T/C [10]: 6.07% | viability, T/C [11]: 7.33% | viability, T/C [12]: 7.04% | viability, T/C (second compound 0.316 µM, first compound 0.00316 µM): 14.2% | viability, T/C (second compound 0.316 µM, first compound 0.01 µM): 8.55% | viability, T/C [13]: 7.4% | viability, T/C [14]: 7.69% | viability, T/C [15]: 5.4% | viability, T/C [16]: 7.34% | viability, T/C (second compound 1 µM, first compound 0.00316 µM): 9.92% | viability, T/C (second compound 1 µM, first compound 0.01 µM): 7.97% | viability, T/C [17]: 7.96% | viability, T/C [18]: 6.96% | viability, T/C [19]: 7.3% | viability, T/C [20]: 5.65% | viability, T/C (second compound 3.16 µM, first compound 0.00316 µM): 7.24% | viability, T/C (second compound 3.16 µM, first compound 0.01 µM): 6.5% | viability, T/C (second compound 3.16 µM, first compound 0.0316 µM): 6.06% | viability, T/C (second compound 3.16 µM, first compound 0.1 µM): 5.7% | viability, T/C (second compound 3.16 µM, first compound 0.316 µM): 4.35% | viability, T/C (second compound 3.16 µM, first compound 1 µM): 5.91% | viability, T/C (second compound 10 µM, first compound 0.00316 µM): 8.28% | viability, T/C (second compound 10 µM, first compound 0.01 µM): 7.76% | viability, T/C (second compound 10 µM, first compound 0.0316 µM): 5.58% | viability, T/C (second compound 10 µM, first compound 0.1 µM): 5.8% | viability, T/C (second compound 10 µM, first compound 0.316 µM): 5.91% | viability, T/C (second compound 10 µM, first compound 1 µM): 6.36%

IC50 (curve of compound): 3.81 nM [middle of 4 runs]
SMILES: Nc1ccn(C2OC(CO)C(O)C2(F)F)c(=O)n1 (stereo not drawn)
viability, T/C (compound 0.00316 µM): 57.2% [middle of 4 runs] | viability, T/C (compound 0.01 µM): 12.7% [middle of 4 runs] | viability, T/C (compound 0.0316 µM): 12% [middle of 4 runs] | viability, T/C (compound 0.1 µM): 12.9% [middle of 4 runs] | viability, T/C (compound 0.316 µM): 10.6% [middle of 4 runs] | viability, T/C (compound 1 µM): 12.1% [middle of 4 runs]

IC50 (curve of first compound, second compound 0.00316 µM): < 0.0316 µM | IC50 (curve of first compound, second compound 0.01 µM): < 0.0316 µM | IC50 [1]: < 0.0316 µM | IC50 [2]: < 0.0316 µM | IC50 [3]: < 0.0316 µM | IC50 [4]: < 0.0316 µM
SMILES: CC(=O)OC12COC1CC(O)C1(C)C(=O)C(O)C3=C(C)C(OC(=O)C(O)C(NC(=O)OC(C)(C)C)c4ccccc4)CC(O)(C(OC(=O)c4ccccc4)C21)C3(C)C (stereo not drawn) + C=CC(=O)N1CCN(c2nc(OCC3CCCN3C)nc3c(F)c(-c4nc(N)cc(C)c4C(F)(F)F)c(Cl)cc23)C(C)C1
viability, T/C (second compound 0.00316 µM, first compound 0.0316 µM): 8.38% | viability, T/C (second compound 0.00316 µM, first compound 0.1 µM): 7.03% | viability, T/C (second compound 0.00316 µM, first compound 0.316 µM): 7.44% | viability, T/C (second compound 0.00316 µM, first compound 1 µM): 6.91% | viability, T/C (second compound 0.00316 µM, first compound 3.16 µM): 7.11% | viability, T/C (second compound 0.00316 µM, first compound 10 µM): 7.02% | viability, T/C (second compound 0.01 µM, first compound 0.0316 µM): 8.84% | viability, T/C (second compound 0.01 µM, first compound 0.1 µM): 6.99% | viability, T/C (second compound 0.01 µM, first compound 0.316 µM): 7.34% | viability, T/C (second compound 0.01 µM, first compound 1 µM): 7.25% | viability, T/C (second compound 0.01 µM, first compound 3.16 µM): 7.21% | viability, T/C (second compound 0.01 µM, first compound 10 µM): 6.02% | viability, T/C [5]: 8.72% | viability, T/C [6]: 7.79% | viability, T/C [7]: 7.18% | viability, T/C [8]: 7.01% | viability, T/C (second compound 0.0316 µM, first compound 3.16 µM): 6.46% | viability, T/C (second compound 0.0316 µM, first compound 10 µM): 5.97% | viability, T/C [9]: 8.28% | viability, T/C [10]: 7.95% | viability, T/C [11]: 8.02% | viability, T/C [12]: 7.09% | viability, T/C (second compound 0.1 µM, first compound 3.16 µM): 8.08% | viability, T/C (second compound 0.1 µM, first compound 10 µM): 6.87% | viability, T/C [13]: 8.75% | viability, T/C [14]: 8.38% | viability, T/C [15]: 10.2% | viability, T/C [16]: 8.18% | viability, T/C (second compound 0.316 µM, first compound 3.16 µM): 8.14% | viability, T/C (second compound 0.316 µM, first compound 10 µM): 6.78% | viability, T/C [17]: 12% | viability, T/C [18]: 9.42% | viability, T/C [19]: 9.31% | viability, T/C [20]: 8.34% | viability, T/C (second compound 1 µM, first compound 3.16 µM): 11.8% | viability, T/C (second compound 1 µM, first compound 10 µM): 9.17%
